Test results from PubChem BioAssay AID1963861 (Molecular Pharmacology Branch, DTP, NCI, 2024).

Tested on: 885724-159-R-J1-PDC KRAS PDC multicell spheroid viability
Experiment: Anticancer human tumor 885724-159-R-J1-PDC patient-derived pancreatic adenocarcinoma cell line growth inhibition [KRAS2]
Conditions: for IC50: curve of first compound; for viability, T/C: stronger effect = lower value
In short: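 Combination screen of spheroid viability in tumor-cell co-cultures with endothelial (HUVEC) and mesenchymal stem cell stroma. Each agent was tested in half-log dilutions, topping at clinical Cmax or at 10 microM without a known Cmax.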
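Further: spheroids exposed to agents for 7 days before readout.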

## CC(=O)Nc1cccc(-n2c(=O)n(C3CC3)c(=O)c3c(Nc4ccc(I)cc4F)n(C)c(=O)c(C)c32)c1 + C=CC(=O)N1CCN(c2nc(OCC3CCCN3C)nc3c2CCN(c2cccc4cccc(C)c24)C3)CC1CC#N
Second compound 0.0316 µM
  IC50: 1.33 nM
Second compound 0.1 µM
  IC50: 1.48 nM
Second compound 0.316 µM
  IC50: 0.933 nM
Second compound 1 µM
  IC50: 0.625 nM
Second compound 3.16 µM
  IC50: < 0.1 nM
Second compound 0.0316 µM, first compound 0.0001 µM
  viability, T/C: 107%
Second compound 0.0316 µM, first compound 0.000316 µM
  viability, T/C: 78.7%
Second compound 0.0316 µM, first compound 0.001 µM
  viability, T/C: 51.3%
Second compound 0.0316 µM, first compound 0.00316 µM
  viability, T/C: 38.5%
Second compound 0.0316 µM, first compound 0.01 µM
  viability, T/C: 31%
Second compound 0.0316 µM, first compound 0.0316 µM
  viability, T/C: 20.8%
Second compound 0.1 µM, first compound 0.0001 µM
  viability, T/C: 92.3%
Second compound 0.1 µM, first compound 0.000316 µM
  viability, T/C: 84%
Second compound 0.1 µM, first compound 0.001 µM
  viability, T/C: 54.2%
Second compound 0.1 µM, first compound 0.00316 µM
  viability, T/C: 37.3%
Second compound 0.1 µM, first compound 0.01 µM
  viability, T/C: 28.9%
Second compound 0.1 µM, first compound 0.0316 µM
  viability, T/C: 20.4%
Second compound 0.316 µM, first compound 0.0001 µM
  viability, T/C: 92.6%
Second compound 0.316 µM, first compound 0.000316 µM
  viability, T/C: 74.8%
Second compound 0.316 µM, first compound 0.001 µM
  viability, T/C: 45.1%
Second compound 0.316 µM, first compound 0.00316 µM
  viability, T/C: 34.8%
Second compound 0.316 µM, first compound 0.01 µM
  viability, T/C: 28.7%
Second compound 0.316 µM, first compound 0.0316 µM
  viability, T/C: 20.4%
Second compound 1 µM, first compound 0.0001 µM
  viability, T/C: 85.1%
Second compound 1 µM, first compound 0.000316 µM
  viability, T/C: 64.3%
Second compound 1 µM, first compound 0.001 µM
  viability, T/C: 39.5%
Second compound 1 µM, first compound 0.00316 µM
  viability, T/C: 27.7%
Second compound 1 µM, first compound 0.01 µM
  viability, T/C: 21.8%
Second compound 1 µM, first compound 0.0316 µM
  viability, T/C: 18.6%
Second compound 3.16 µM, first compound 0.0001 µM
  viability, T/C: 45.4%
Second compound 3.16 µM, first compound 0.000316 µM
  viability, T/C: 37.8%
Second compound 3.16 µM, first compound 0.001 µM
  viability, T/C: 18.8%
Second compound 3.16 µM, first compound 0.00316 µM
  viability, T/C: 18.8%
Second compound 3.16 µM, first compound 0.01 µM
  viability, T/C: 5.46%
Second compound 3.16 µM, first compound 0.0316 µM
  viability, T/C: 8.49%
